Measured values taken from patent US20110188043A1, “METHOD AND APPARATUS FOR MONITORING PROCESSES IN LIVING CELLS” (Yissum, Research Development Company of The Hebrew …, priority 2007, published 2011).

Experiments:
[1] = system: Human melanoma (MEL 1106) cells; assay: FTIR-SPR measurements of Tfn-induced SPR signal shifts in a cell monolayer on an Au-coated ZnS prism; format: cell-based; conditions: for SPR signal shift on cell exposure to ligand: 5 μg/ml of Tfn, cells on Au-coated ZnS prism; for change in the average refraction index of cells Δn: calculated as Δn=ΔR/S at 4425 cm^−1
Description: Surface plasmon (SP) was excited using Kretchmann's geometry as illustrated in FIG. 3A employing the Bruker FTIR spectrometer (Equinox 55—Bruker Optik GmbH, Ettlingen, Germany) equipped with a KBr beam splitter as mid-IR source, and a right-angle ZnS prism having a 20×40 mm base (ISP Optics, Inc., Irvington, N.Y, US) coated with an 18-nm-thick gold film (electron-beam evaporation). Cells were cultured on the gold surface, as described below. The prism and cells were attached to a flow chamber mounted on a goniometer, in such way that the cells on the gold-coated base faced the flow chamber's volume (0.5 ml). The flow chamber was filled with cell culture medium, resulting in direct contact between the medium and the gold layer, or cells cultured on that layer. The medium was passed through the chamber at a constant flow rate (5 μl/min) during the entire experiment, using a motorized bee syringe pump equipped with a variable speed controller. The temperature of the medium flowing through the chamber was controlled (±0.1° C.). The infrared light from the output window of the FTIR instrument passed through a collimator, consisting of a 1-mm diameter pinhole mounted between two gold coated off-axis parabolic mirrors, m1 and m2, with focal lengths of about 76.2 mm and 25.4 mm, respectively, along with a grid polarizer and an iris. The collimated beam (˜4 mm in diameter) was reflected from the ZnS prism and focused by an additional parabolic mirror, m3, onto a liquid-nitrogen-cooled MCT (HgCdTe) detector, mounted on the goniometer.
Human melanoma (MEL 1106) cells were cultured on a 10-cm dish in Dolbecco's modified Eagle's medium (D-MEM, Biological Industries, Israel), supplemented with 4.5 g/l D-glucose, 10% antibiotics, and 10% fetal calf serum, as previously described for HeLa cells [Ziblat et al., 2006]. These cells were used in the SPR experiments, and their culture on Au coated prisms was performed as follows: upon reaching 70% confluence, cells were detached from the dish by trypsin C (0.05% Trypsin/EDTA in Puck's saline A; Biological Industries, Israel) treatment, and brought to a cell density of about 1.8×10^5 cells/ml in complete growth medium. With reference to FIG. 7, three milliliters of cell suspension 29 were seeded on top of the Au-coated ZnS prism 27 mounted onto a home-made polycarbonate holder, such that the cell suspension 29 covered the entire prism's base 28. Cells were allowed to attach for at least 3 hrs in a CO2 incubator (5% CO2, 37° C., 90% humidity). Thereafter, growth medium (5 ml) was added and the prism 27 was placed in a CO2 incubator for an additional 2-3 days, until a uniform and nearly confluent monolayer of cells (above 70%; ˜30 cells per 1000 μm^2) covered the Au-surface.
In the initial phase of each experiment, cells cultured on an Au-coated prism were exposed to serum-free DMEM for 3 hours at […] for depleting the cells from internal pools of Tfn contributed by the serum. The prism with the cultured cells was then attached to the flow chamber, which was rapidly filled with pre-warmed (37° C.) minimal essential medium (MEM) containing Hank's salts (GIBCO), 20 mM Hepes, pH 7.2, and 5 μg/ml BSA (MEM-BSA). The temperature in the flow chamber was adjusted to 37° C.±0.1° C., unless otherwise indicated. Thereafter, the angle of incidence in the SPR configuration was set to θ=35.5°. […] These parameters were optimal, allowing maximal sensitivity (S=ΔR/Δn), and reasonable SP penetration depth/propagation length.
The reflectivity of the s-polarized beam was used as a background for subsequent measurements. The SPR signal is the ratio of the reflectivities obtained for the p-polarized and s-polarized beams. The FTIR-SPR set-up of the invention repeatedly measured the reflectivity spectra. This was done every 25 seconds with a 4-cm^−1 wavenumber resolution and with 16-scan averaging. The SPR measurements were carried out continuously for 15-20 minutes, until a stable SPR signal was recorded. […]

[2] = system: HeLa cells; assay: FTIR-SPR of cholesterol enrichment/depletion of the cell membrane; format: cell-based, human; conditions: λ=1.08 μm, 37° C.; mβCD-chol at t=0, mβCD at t=15 for 3 min
Text: The penetration of cholesterol into the plasma membrane of the HeLa cells was studied with the FTIR-SPR technique of the invention (similar studies using SPR in the visible range were reported by Besenicar et al., [Biochimica et Biophysica Acta-Biomembranes, 177, 175 (2008).]. It is well-known that cholesterol enters mostly into the plasma membrane rather than into cytoplasm. Therefore, to achieve high sensitivity to membrane-related events, the near-infrared wavelength range was chosen, λsp=1÷1:08 μm, characterized by a relatively low SPR penetration depth.
The HeLa cells were grown on an SF-11 glass prism coated with 35-nm-thick gold film. The prism with the cells was mounted into a flow chamber and was equilibrated in growth medium for 5-7 minutes at 37° C. Then 10 mM of mfβCD-chol (methyl-beta-cyclodextrin loaded with cholesterol) was added, which is known to enrich the cells by cholesterol. The FTIR-SPR spectra was measured before and after adding the drugs. […] This corresponds to a refractive index increase because cholesterol has a higher refractive index than water. In contrast, when a similar chemical, mβCD, which is not loaded with cholesterol, was added (at t=15 for 3 min) to a growth solution the SPR is blue-shifted, which corresponds to a refractive index decrease. […]

[3] = system: Melanoma cells; assay: Time-lapse confocal imaging of fluorescently tagged-Tfn uptake; format: cell-based, human
Description: Melanoma cells were cultured to ˜50% confluence on glass bottom culture dishes (35 mm dish, 14 mm Microwell; MatTek, Co., MA, USA). Cells were first exposed to growth medium lacking serum for 3 hrs prior to the experiment, and then washed three times with internalization buffer (150 mM NaCl, 20 mM Hepes, pH 7.4, 1 mM CaCl2, 5 mM KCl, 1 mM MgCl2, 10 mM Glucose). Following the last wash, internalization buffer containing 0.1 μM sulforhodamine green (SRG) (Biotium, Hayward, Calif.) was added to the medium. Cells were imaged (FIG. 10A—confocal imaging of live cells performed simultaneously in the green and red channels, about 30 sec (designated time 0) after cell exposure to the ligand) with an Olympus FV-1000 confocal microscope equipped with an on-scope incubator (Life Image Services, Bazel, Switzerland), which controls temperature and humidity, and provides an atmosphere of 5% CO2. A 60×/NA=1.35 oil immersion objective was used. […] First, one plane of focus was acquired, and Rhodamine Red'-holo Tfn (5 μg/ml; Jackson ImmunoResearch) was introduced into the imaging buffer. Confocal images of both the SRG (Ex: 514 nm; Em: 535-565 nm) and Rhodamine Red-holo-Tfn (Ex: 543 nm; Em: 560-660 nm) were acquired from the same section every 10 or 20 sec. A similar protocol was used for Lissamine Rhodamine-apo-Tfn, except that the SRG was imaged using 488-nm excitation and a 505-525-nm emission filter. The FV1000 was equipped with the ZDC (Zero Drift Controller) option, to maintain the same focus plane throughout the entire period of imaging.
The images were processed using ImageJ [Rasband, W. S., ImageJ, U.S. National Institutes of Health, Bethesda, Md., USA, http://rsb.info.nih.gov/ij/, 1997-2007] to determine fluorescence levels within cells as follows: First the despeckle filter (essentially a median filter with a 3×3 kernel) was applied to remove point noise and the SRG image was used to determine the cell boundaries; then, the average fluorescence intensity inside the cells (F(t)intracellular) was divided by the average fluorescence intensity in a region of interest outside the cells (<F(t)>extracellular). This procedure was adopted based on the assumption that there is insignificant depletion of labeled Tfn in the medium, so that the fluorescence in the medium should remain constant.
Then, the fluorescence levels within the bounded area were determined in the red channels for each time frame. Background fluorescence levels measured before the addition of Rhodamine Red-Tfn were subtracted from values measured in the same channel during ligand introduction.

[4] = system: human red blood cells (RBCs); assay: FTIR-SPR measurement of glucose uptake by erythrocyte suspension; format: cell-based; conditions: λ=4 μm, 22° C., erythrocyte suspension in PBS
Description: In the following section measurements of glucose uptake by erythrocyte suspension in the PBS medium are described. Briefly, fresh human red blood cells (RBCs) were washed four times in PBS by centrifugation. The supernatant and buffy coat cells were discarded and RBCs were resuspended in glucose-free PBS to yield ce=5% v/v. For complete glucose depletion, cells were incubated for 60 min at 22° C. in PBS. Then, RBCs were centrifuged and resuspended in fresh PBS containing the required concentrations of D-glucose supplemented with L-glucose, to keep the total glucose concentration (osmolarity) equal to 20 mM. The SPR measurements were performed at 22° C. to slow down cellular glycolysis. The measurements were performed using a ZnS prism coated with a 12-nm thick Au film. […] Although the sensitivity at this wavelength is low (FIG. 19A), the use of such a long wavelength here is mandatory in order to sense the processes inside erythrocytes. The average distance between the erythrocytes is Dece^1/3=17 μm. The surface plasmon propagation length, Lx=30 μm (FIG. 21), exceeds the distance between erythrocytes.

[5] = system: Melanoma 1106 cell; assay: FTIR-SPR of ferrotransferrin uptake with long-wavelength surface plasmon; format: cell-based, human; conditions: λ=2.54 μm
Text: The FTIR-SPR technique of the invention was applied to study transferrin-induced clathrin-mediated endocytic processes that introduce Fe ions into the cell.
The same process was studied using a long-wavelength surface plasmon at λ=2.54 μm. Its penetration depth, δzd=1.2 μm (FIG. 20), is deep enough to penetrate the cells, although it senses mostly the cell periphery. […] The kinetics of the SPR reflectivity closely follows the fluorescence kinetics in the cell periphery (FIG. 27A), as expected. […] The obvious advantage of the SPR technique is that it is label-free. […] This rules out the possibility that the SPR shift results from accumulation of organic molecules in the cell (this would increase the refractive index). […] This is consistent with the biological picture of endocytosis that includes transferrin-induced vesicular transport.

“methyl-β-cyclodextrin [mβCD, reference compound]” was tested, and the “effect on holo-Tfn-induced SPR signal shift (cholesterol depletion / replenishment)” value ([1]; mβCD 3 mM for 15 min at 37° C., rinsed, then holo-Tfn) was “diminished compared with untreated cells” and the “SPR shift after addition to growth medium” value [2] was “blue-shifted”.

With “Rhodamine Red-holo-Tfn: Rhodamine Red tagged holo-Tfn (Jackson ImmunoResearch) used for fluorescence imaging [reference compound]” the “ligand internalization rates (fluorescence)” value ([3]; lower temperatures (30° C. vs 37° C.)) was “reduced ligand internalization rates”.

With “apo-Tfn: Human apo-Tfn dialyzed against sodium citrate to remove possible iron traces; tagged with Lissamine Rhodamine for imaging” the “SPR signal shift on cell exposure to ligand” value ([1]; 37° C.) was “small SPR signal shifts”, the “change in the average refraction index of cells Δn” value [1] was “smaller than −1*10^−4” and the “accumulation of tagged Tfn fluorescence within the cells” value ([3]; 37° C.) was “accumulated within the cells at slower rates”.

With `O=C[C@H](O)[C@@H](O)[C@H](O)[C@H](O)CO` [D-glucose] the “reflectivity in the SPR regime upon addition” value [4] was “reflectivity in the SPR regime rapidly increases with time, until saturation is reached”.

In the case of `CN(C)CCCN1c2ccccc2Sc2ccc(Cl)cc21` [CPZ, Chlorpromazine, reference compound], the “SPR signal shift immediately after cell exposure to the drug” value ([1]; 100 μM CPZ in MEM/BSA, 37° C.) was “sizeable shift of the SPR signal towards shorter wavelengths”, the “effect on holo-Tfn-induced SPR signal shifts” value ([1]; 100 μM CPZ, then approximately 90 min washout, compared with untreated cells) was “diminished SPR signal shifts” and the “blue shift in the SPR signal relative to that induced by Tfn” value ([1]; CPZ treatment per se) was 10 times. The “washout time after which a steady SPR signal was measured” value ([1]; CPZ washout with plain MEM/BSA) was ~30 min, the “SPR signal shift on removal (washout) with plain MEM/BSA” value [1] was “ongoing decrease” and the “effect on rate of holo-Tfn uptake into the cells (fluorescence)” value ([3]; CPZ treatment followed by 90 min of drug washout, 37° C.) was “significantly decreased the rate of holo-Tfn uptake”.

With “holo-Tfn: Human apo-Tfn (transferrin) loaded with iron, which converts it to holo-Tfn” the “SPR signal shift on cell exposure to ligand” value ([1]; 37° C.) was “time-dependent shifts of the SPR minimum towards shorter wavelengths”, the “Tfn-induced SPR shifts” value ([1]; 19° C.) was “diminished SPR shifts” and the “Tfn-induced SPR shifts” value ([1]; 30° C.) was “larger SPR shifts”. For the same compound, the “Tfn-induced SPR shifts” value ([1]; 37° C.) was “maximal shifts”, the “change in the average refraction index of cells Δn” value [1] was −4*10^−4 and the “time over which the SPR signal increased before levelling off” value ([1]; holo-Tfn, 37° C.) was 2 to 3 min. The “SPR signal shift on removal (washout) with plain MEM/BSA” value [1] was “red-shift in the SPR signal”, the “cell fluorescence intensity over time” value ([3]; holo-Ft tagged with Rhodamine Red, Melanoma 1106 cell) was “fluorescence intensity increases and then achieves saturation” and the “SPR shift upon introduction into the solution” value [5] was “blue-shifted”.
